Assay results as given in ChEMBL document CHEMBL5321293, “Discovery of ERD-3111 as a Potent and Orally Efficacious Estrogen Receptor PROTAC Degrader with Strong Antitumor Activity” (J Med Chem, 2023).
Calls of active or inactive are those of the source. No cut-off for these calls is given here.

Columns and labels:
[1] = Half life in Sprague-Dawley rat at 3 mg/kg, po and measured upto 24 hrs by LC-MS/MS analysis; details: in vivo
[2] = Volume of distribution at steady state in Sprague-Dawley rat at 1 mg/kg, iv and measured upto 24 hrs by LC-MS/MS analysis; details: in vivo
[3] = rat, in vivo, po, 3 mg/kg, 24 h
[4] = biological target: T1, Protein cereblon/Estrogen receptor (Homo sapiens, UniProt P03372+Q96SW2); experiment: Protac activity at human ERalpha in human MCF7 cells assessed as protein degradation incubated for 12 hrs by ICW blot assay; type: cell-based
Target sequence in this assay (P03372 whole entry): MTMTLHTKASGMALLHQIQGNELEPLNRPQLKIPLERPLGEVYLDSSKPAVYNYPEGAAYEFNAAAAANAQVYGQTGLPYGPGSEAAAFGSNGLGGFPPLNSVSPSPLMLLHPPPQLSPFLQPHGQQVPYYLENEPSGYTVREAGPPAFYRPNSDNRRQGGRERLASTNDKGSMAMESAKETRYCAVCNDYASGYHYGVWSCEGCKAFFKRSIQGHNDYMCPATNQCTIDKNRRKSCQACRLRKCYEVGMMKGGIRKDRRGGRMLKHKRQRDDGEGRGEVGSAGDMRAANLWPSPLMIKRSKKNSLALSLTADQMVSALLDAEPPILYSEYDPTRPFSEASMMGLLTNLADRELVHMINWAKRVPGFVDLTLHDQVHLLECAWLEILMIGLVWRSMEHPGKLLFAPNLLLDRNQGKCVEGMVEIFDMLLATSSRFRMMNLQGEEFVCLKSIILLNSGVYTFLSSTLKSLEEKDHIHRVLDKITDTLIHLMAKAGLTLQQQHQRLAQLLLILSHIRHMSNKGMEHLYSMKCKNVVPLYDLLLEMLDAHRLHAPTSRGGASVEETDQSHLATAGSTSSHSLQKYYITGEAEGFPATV
Target sequence in this assay (Q96SW2 whole entry): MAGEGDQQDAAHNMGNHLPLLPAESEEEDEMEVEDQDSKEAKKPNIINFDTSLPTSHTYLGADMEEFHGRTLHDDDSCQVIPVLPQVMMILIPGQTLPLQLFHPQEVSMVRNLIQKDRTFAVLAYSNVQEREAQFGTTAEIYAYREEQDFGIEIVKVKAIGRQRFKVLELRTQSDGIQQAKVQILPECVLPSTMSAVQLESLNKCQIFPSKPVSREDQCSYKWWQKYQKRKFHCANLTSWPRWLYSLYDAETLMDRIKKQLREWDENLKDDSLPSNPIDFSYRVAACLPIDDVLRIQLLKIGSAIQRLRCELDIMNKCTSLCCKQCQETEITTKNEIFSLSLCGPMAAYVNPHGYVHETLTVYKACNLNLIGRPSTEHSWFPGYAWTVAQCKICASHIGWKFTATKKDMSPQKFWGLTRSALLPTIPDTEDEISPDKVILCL

in vivo [5] = details: Sprague-Dawley, rat, po, 3 mg/kg
[6] = biological target: T1, Protein cereblon/Estrogen receptor; experiment: Protac activity at human ERalpha in human MCF7 cells assessed as induction of ERalpha degradation by measuring maximum efficacy at 1 uM incubated for 12 hrs by ICW blot assay relative to control; type: cell-based
Target sequence in this assay (P03372 whole entry, looked up): as the sequence (P03372 whole entry) above
Target sequence in this assay (Q96SW2 whole entry, looked up): as the sequence (Q96SW2 whole entry) above

[7] = AUC in Sprague-Dawley rat at 3 mg/kg, po and measured upto 24 hrs by LC-MS/MS analysis; type: ADME, organism-based; set-up: dose 3 mg/kg, time < 24 hrs, route po; details: in vivo
[8] = Plasma concentration in Sprague-Dawley rat at 3 mg/kg,po and mesured after 1 hrs by LC-MS/MS analysis; type: ADME, organism-based
[9] = Plasma concentration in Sprague-Dawley rat at 3 mg/kg,po and mesured after 3 hrs by LC-MS/MS analysis; type: ADME, organism-based
[10] = Plasma concentration in Sprague-Dawley rat at 3 mg/kg,po and mesured after 24 hrs by LC-MS/MS analysis; type: ADME, organism-based
[11] = Plasma concentration in Sprague-Dawley rat at 3 mg/kg,po and mesured after 6 hrs by LC-MS/MS analysis; type: ADME, organism-based
[12] = Plasma concentration in Sprague-Dawley rat at 5 mg/kg,po and mesured after 3 hrs by LC-MS/MS analysis; type: ADME, organism-based
[13] = Plasma concentration in Sprague-Dawley rat at 5 mg/kg,po and mesured after 6 hrs by LC-MS/MS analysis; type: ADME, organism-based
[14] = Plasma concentration in Sprague-Dawley rat at 5 mg/kg,po and mesured after 1 hrs by LC-MS/MS analysis; type: ADME, organism-based
in vivo [15] = details: Sprague-Dawley, rat, po, 3 mg/kg; remark: listed apart in the source
[16] = Plasma protein binding in dog; type: ADME, cell-free, Canis lupus familiaris; details: read-out: PPB (converted)
[17] = Plasma protein binding in human; type: ADME, cell-free; details: read-out: PPB (converted)
[18] = Plasma protein binding in monkey; type: ADME, cell-free, Macaca mulatta; details: rhesus monkey, read-out: PPB (converted)
[19] = Plasma protein binding in rat; type: ADME, cell-free; details: read-out: PPB (converted)
[20] = Plasma protein binding in mouse; type: ADME, cell-free; details: read-out: PPB (converted)
[21] = Clearance in Sprague-Dawley rat at 1 mg/kg, iv and measured upto 24 hrs by LC-MS/MS analysis; details: in vivo
[22] = Toxicity in CB17 SCID mouse xenografted with human MCF7 cells harboring ESR1 Y537S mutant assessed as body weight change at 30 mg/kg,po qd for 4 weeks; type: organism-based; details: in vivo, 672 h
[23] = Downregulation of ERalpha protein expression in tumor of CB17 SCID mouse xenografted with human MCF7 cells harboring wild type ESR1 at 30 mg/kg, po qd for 3 days and measured after 3 hrs last dose by Western blot analysis relative to control; type: functional; details: time 3 day
[24] = Downregulation of ERalpha protein expression in tumor of CB17 SCID mouse xenografted with human MCF7 cells harboring wild type ESR1 at 30 mg/kg, po qd for 3 days and measured after 24 hrs last dose by Western blot analysis relative to control; type: functional; details: time 3 day
MCF7 [25] = experiment: Antitumor activity against human MCF7 cells harboring ESR1 Y537S mutant xenografted in CB17 SCID mouse assessed as tumor growth inhibition at 30 mg/kg, po qd for 4 weeks and measured 30 days post last dose; type: functional
[26] = Toxicity in CB17 SCID mouse xenografted with human MCF7 cells harboring ESR1 D538G mutant assessed as body weight change at 30 mg/kg,po qd for 4 weeks; type: organism-based; details: in vivo, 672 h
[27] = Downregulation of ERalpha protein expression in tumor of CB17 SCID mouse xenografted with human MCF7 cells harboring ESR1 Y537S mutant at 30 mg/kg, po qd for 3 days and measured after 6 hrs last dose by Western blot analysis relative to control; type: functional; details: time 3 day
MCF7 [28] = experiment: Antitumor activity against human MCF7 cells harboring wild type ESR1 xenografted in CB17 SCID mouse assessed as tumor growth inhibition at 10 mg/kg, po qd for 5 weeks; type: functional; details: MCF7, 840 h, read-out: TGI
MCF7 [29] = experiment: Antitumor activity against human MCF7 cells harboring ESR1 D538G mutant xenografted in CB17 SCID mouse assessed as tumor growth inhibition at 30 mg/kg, po qd for 4 weeks; type: functional; details: MCF7, 672 h, read-out: TGI
[30] = Toxicity in CB17 SCID mouse xenografted with human MCF7 cells harboring wild type ESR1 assessed as body weight change at 10 mg/kg,po qd for 5 weeks; type: organism-based; details: in vivo, 840 h
MCF7 [31] = experiment: Antitumor activity against human MCF7 cells harboring ESR1 Y537S mutant xenografted in CB17 SCID mouse assessed as tumor growth inhibition at 30 mg/kg, po qd for 4 weeks; type: functional
MCF7 [32] = experiment: Antitumor activity against human MCF7 cells harboring ESR1 D538G mutant xenografted in CB17 SCID mouse assessed as tumor growth inhibition at 30 mg/kg, po qd for 4 weeks and measured 1 week post last dose; type: functional, organism-based

## O=C1CCC(N2C(=O)c3cc4c(cc3C2=O)CN(CC2CCN(CC3CCN(c5ccc([C@@H]6c7ccc(O)cc7CC[C@@H]6c6ccccc6)cc5)CC3)CC2)C4)C(=O)N1 (stereo not given in full)
[1]
  half-life at 24 h: 16 h
[2]
  Vd at 24 h: 55.4 L/kg
[3]
  F: 36%
[4]
  DC50: 4.3 nM
In vivo [5]
  Cmax at 24 h: 24.9 ng/mL
[6]
  Emax: 79%
[7]; 24 h
  AUC: 0.399 µg·h/mL

## C[C@@H]1Cc2c([nH]c3ccccc23)[C@@H](c2c(F)cc(N3CCC4(CCN(C(=O)CN5Cc6cc7c(cc6C5)C(=O)N(C5CCC(=O)NC5=O)C7=O)CC4)CC3)cc2F)N1CC(C)(C)F (stereo not given in full)
[8]
  concentration at 1 h: 7.9 ng/mL
[9]
  concentration at 3 h: 8.2 ng/mL
[4]
  DC50: 0.8 nM
[6]
  Emax: 83%
[10]
  concentration at 24 h: 4 ng/mL
[11]
  concentration at 6 h: 8.3 ng/mL

## C[C@@H]1Cc2c([nH]c3ccccc23)[C@@H](c2c(F)cc(N3CCC4(CCN(C(=O)CN5Cc6cc7c(cc6C5)C(=O)N(C5CCC(=O)NC5=O)C7=O)CC4)CC3)cc2F)N1CC(F)F (stereo not given in full)
[12]
  concentration at 3 h: 14 ng/mL
[13]
  concentration at 6 h: 10.3 ng/mL
[14]
  concentration at 1 h: 8.3 ng/mL
[4]
  DC50: 0.8 nM
[6]
  Emax: 106%

## CN1Cc2cc3c(cc2C1)C(=O)N(C1CCC(=O)NC1=O)C3=O (stereo not given)
[1]
  half-life at 24 h: 1.8 h
[2]
  Vd at 24 h: 5 L/kg
In vivo [15]
  bioavailability at 24 h: 70%
[16]
  fraction unbound: 0.83
[17]
  fraction unbound: 0.875
In vivo [5]
  Cmax at 24 h: 228 ng/mL
[18]
  fraction unbound: 0.856
[7]; Sprague-Dawley
  AUC at 24 h: 1.15 µg·h/mL
[19]
  fraction unbound: 0.635
[20]
  fraction unbound: 0.737
[21]
  clearance at 24 h: 1.75 L/h/kg

## O=C1CC[C@H](N2Cc3cc(N4CCN(CC5CCN(c6ccc([C@@H]7c8ccc(O)cc8CC[C@@H]7c7ccccc7)cc6)CC5)CC4)ccc3C2=O)C(=O)N1 [VEPDEGESTRANT]
[22]
  Activity: Non-Toxic
[23]
  Activity: 83%
[24]
  Activity: 78%
MCF7 [25]
  Activity: Active
[26]
  Activity: Non-Toxic
[27]
  Activity: 77%
MCF7 [28]
  inhibition in vivo at 10 mg/kg: 87%
MCF7 [29]
  inhibition in vivo at 30 mg/kg: 47%
[30]
  Activity: Non-Toxic
MCF7 [31]
  Activity: Active
MCF7 [32]
  Activity: Active
